Assays:
Experiment in all cases: relative viability (nuclei count vs DMSO), 5 days (fraction); higher = more cells survive
NCI-H1703 = tested on: NCI-H1703
Summary of the method: (§1)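 For relative viability, nuclei counts in treated wells were divided by those in vehicle wells. Lung cancer cell lines had been pin-tool dosed in 1536-well plates the day after seeding and cultured for 5 days, then fixed and stained in one step (final 0.05% Triton X-100, 1% formaldehyde, 1 ug/ml Hoechst) and imaged at 4×. Doses were one drug alone or a fixed anchor-drug dose plus five library-drug doses (not always all listed) in √10 steps, and values are duplicate-plate medians.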

CAL-12T = tested on: CAL-12T
Summary of the method: as §1

Calu-6 = tested on: Calu-6
Summary of the method: as §1

A549 = tested on: A549
Summary of the method: as §1

NCI-H1734 = tested on: NCI-H1734
Summary of the method: as §1

UMC-11 = tested on: UMC-11
Summary of the method: as §1

EBC-1 = tested on: EBC-1
Summary of the method: as §1

LK-2 = tested on: LK-2
Summary of the method: as §1

NCI-H2009 = tested on: NCI-H2009
Summary of the method: as §1

NCI-H1299 = tested on: NCI-H1299
Summary of the method: as §1

A-427 = tested on: A-427
Summary of the method: as §1

IA-LM = tested on: IA-LM
Summary of the method: as §1

NCI-H1650 = tested on: NCI-H1650
Summary of the method: as §1

CC(=O)O[C@@]12CO[C@@H]1C[C@H](O)[C@@]1(C)C(=O)[C@H](O)C3=C(C)[C@@H](OC(=O)[C@H](O)[C@@H](NC(=O)OC(C)(C)C)c4ccccc4)C[C@@](O)([C@@H](OC(=O)c4ccccc4)[C@H]21)C3(C)C [Docetaxel] + CC1(C)CCC(c2ccc(Cl)cc2)=C(CN2CCN(c3ccc(C(=O)NS(=O)(=O)c4ccc(N[C@H](CCN5CCOCC5)CSc5ccccc5)c(S(=O)(=O)C(F)(F)F)c4)cc3)CC2)C1 [Navitoclax] (partner 0.5 µM)
relative viability (NCI-H1703; first compound 0.0002 µM): 1.07
relative viability (NCI-H1703; first compound 0.000632 µM): 0.551
relative viability (NCI-H1703; first compound 0.006325 µM): 0.129
relative viability (NCI-H1703; first compound 0.02 µM): 0.108
relative viability (CAL-12T; first compound 0.0002 µM): 1.02
relative viability (CAL-12T; first compound 0.000632 µM): 0.694
relative viability (CAL-12T; first compound 0.002 µM): 0.178
relative viability (CAL-12T; first compound 0.02 µM): 0.101
relative viability (Calu-6; first compound 0.0002 µM): 1.02
relative viability (Calu-6; first compound 0.000632 µM): 0.707
relative viability (Calu-6; first compound 0.002 µM): 0.111
relative viability (Calu-6; first compound 0.006325 µM): 0.0836
relative viability (Calu-6; first compound 0.02 µM): 0.0609
relative viability (A549; first compound 0.0002 µM): 0.985
relative viability (A549; first compound 0.000632 µM): 0.245
relative viability (A549; first compound 0.002 µM): 0.055
relative viability (A549; first compound 0.006325 µM): 0.0522
relative viability (A549; first compound 0.02 µM): 0.0365
relative viability (NCI-H1734; first compound 0.0002 µM): 0.697
relative viability (NCI-H1734; first compound 0.000632 µM): 0.819
relative viability (NCI-H1734; first compound 0.002 µM): 0.323
relative viability (NCI-H1734; first compound 0.02 µM): 0.104
relative viability (UMC-11; first compound 0.0002 µM): 0.314
relative viability (UMC-11; first compound 0.000632 µM): 0.271
relative viability (UMC-11; first compound 0.002 µM): 0.155
relative viability (UMC-11; first compound 0.006325 µM): 0.131
relative viability (UMC-11; first compound 0.02 µM): 0.105
relative viability (EBC-1; first compound 0.0002 µM): 0.259
relative viability (EBC-1; first compound 0.000632 µM): 0.27
relative viability (EBC-1; first compound 0.002 µM): 0.152
relative viability (EBC-1; first compound 0.006325 µM): 0.206
relative viability (EBC-1; first compound 0.02 µM): 0.124
relative viability (LK-2; first compound 0.0002 µM): 0.805
relative viability (LK-2; first compound 0.000632 µM): 0.556
relative viability (LK-2; first compound 0.002 µM): 0.172
relative viability (LK-2; first compound 0.006325 µM): 0.133
relative viability (LK-2; first compound 0.02 µM): 0.145
relative viability (NCI-H2009; first compound 0.0002 µM): 1.15
relative viability (NCI-H2009; first compound 0.000632 µM): 1.19
relative viability (NCI-H2009; first compound 0.002 µM): 0.892
relative viability (NCI-H2009; first compound 0.006325 µM): 0.575
relative viability (NCI-H2009; first compound 0.02 µM): 0.117
relative viability (NCI-H1299; first compound 0.0002 µM): 1.05
relative viability (NCI-H1299; first compound 0.000632 µM): 1.03
relative viability (NCI-H1299; first compound 0.002 µM): 0.938
relative viability (NCI-H1299; first compound 0.006325 µM): 0.526
relative viability (NCI-H1299; first compound 0.02 µM): 0.351
relative viability (A-427; first compound 0.0002 µM): 0.987
relative viability (A-427; first compound 0.000632 µM): 0.926
relative viability (A-427; first compound 0.002 µM): 0.641
relative viability (A-427; first compound 0.006325 µM): 0.26
relative viability (A-427; first compound 0.02 µM): 0.181
relative viability (IA-LM; first compound 0.0002 µM): 0.506
relative viability (IA-LM; first compound 0.000632 µM): 0.172
relative viability (IA-LM; first compound 0.002 µM): 0.0734
relative viability (IA-LM; first compound 0.006325 µM): 0.0267
relative viability (IA-LM; first compound 0.02 µM): 0.024
relative viability (NCI-H1650; first compound 0.0002 µM): 1.13
relative viability (NCI-H1650; first compound 0.000632 µM): 1.02
relative viability (NCI-H1650; first compound 0.002 µM): 0.182
relative viability (NCI-H1650; first compound 0.006325 µM): 0.19
relative viability (NCI-H1650; first compound 0.02 µM): 0.104

COc1cc2nccc(Oc3ccc(NC(=O)Nc4cc(C)on4)c(Cl)c3)c2cc1OC [Tivozanib] + CC1(C)CCC(c2ccc(Cl)cc2)=C(CN2CCN(c3ccc(C(=O)NS(=O)(=O)c4ccc(N[C@H](CCN5CCOCC5)CSc5ccccc5)c(S(=O)(=O)C(F)(F)F)c4)cc3)CC2)C1 [Navitoclax] (partner 0.5 µM)
relative viability (NCI-H1703; first compound 0.005 µM): 0.369
relative viability (NCI-H1703; first compound 0.01581 µM): 0.244
relative viability (NCI-H1703; first compound 0.05 µM): 0.219
relative viability (NCI-H1703; first compound 0.1581 µM): 0.251
relative viability (NCI-H1703; first compound 0.5 µM): 0.249
relative viability (CAL-12T; first compound 0.005 µM): 1.11
relative viability (CAL-12T; first compound 0.01581 µM): 1.19
relative viability (CAL-12T; first compound 0.05 µM): 1.18
relative viability (CAL-12T; first compound 0.5 µM): 0.94
relative viability (Calu-6; first compound 0.005 µM): 0.739
relative viability (Calu-6; first compound 0.01581 µM): 0.896
relative viability (Calu-6; first compound 0.05 µM): 0.798
relative viability (Calu-6; first compound 0.1581 µM): 0.874
relative viability (Calu-6; first compound 0.5 µM): 0.74
relative viability (A549; first compound 0.005 µM): 1.22
relative viability (A549; first compound 0.01581 µM): 1.32
relative viability (A549; first compound 0.05 µM): 1.14
relative viability (A549; first compound 0.1581 µM): 1.23
relative viability (A549; first compound 0.5 µM): 1.19
relative viability (NCI-H1734; first compound 0.005 µM): 0.865
relative viability (NCI-H1734; first compound 0.01581 µM): 0.804
relative viability (NCI-H1734; first compound 0.05 µM): 0.823
relative viability (NCI-H1734; first compound 0.1581 µM): 0.734
relative viability (NCI-H1734; first compound 0.5 µM): 0.82
relative viability (UMC-11; first compound 0.005 µM): 0.314
relative viability (UMC-11; first compound 0.01581 µM): 0.322
relative viability (UMC-11; first compound 0.05 µM): 0.306
relative viability (UMC-11; first compound 0.5 µM): 0.329
relative viability (EBC-1; first compound 0.005 µM): 0.359
relative viability (EBC-1; first compound 0.01581 µM): 0.437
relative viability (EBC-1; first compound 0.05 µM): 0.528
relative viability (EBC-1; first compound 0.1581 µM): 0.436
relative viability (EBC-1; first compound 0.5 µM): 0.485
relative viability (LK-2; first compound 0.005 µM): 0.819
relative viability (LK-2; first compound 0.01581 µM): 0.789
relative viability (LK-2; first compound 0.05 µM): 0.952
relative viability (LK-2; first compound 0.1581 µM): 0.802
relative viability (LK-2; first compound 0.5 µM): 0.644
relative viability (NCI-H2009; first compound 0.005 µM): 1.11
relative viability (NCI-H2009; first compound 0.01581 µM): 1.16
relative viability (NCI-H2009; first compound 0.05 µM): 1.19
relative viability (NCI-H2009; first compound 0.1581 µM): 1.24
relative viability (NCI-H2009; first compound 0.5 µM): 1.14
relative viability (NCI-H1299; first compound 0.005 µM): 1.03
relative viability (NCI-H1299; first compound 0.01581 µM): 1.07
relative viability (NCI-H1299; first compound 0.05 µM): 1.05
relative viability (NCI-H1299; first compound 0.1581 µM): 1.05
relative viability (NCI-H1299; first compound 0.5 µM): 0.981
relative viability (A-427; first compound 0.005 µM): 0.924
relative viability (A-427; first compound 0.01581 µM): 0.989
relative viability (A-427; first compound 0.05 µM): 0.988
relative viability (A-427; first compound 0.1581 µM): 0.737
relative viability (A-427; first compound 0.5 µM): 1.03
relative viability (IA-LM; first compound 0.005 µM): 0.728
relative viability (IA-LM; first compound 0.01581 µM): 0.899
relative viability (IA-LM; first compound 0.05 µM): 0.737
relative viability (IA-LM; first compound 0.1581 µM): 0.574
relative viability (IA-LM; first compound 0.5 µM): 0.582
relative viability (NCI-H1650; first compound 0.005 µM): 1.1
relative viability (NCI-H1650; first compound 0.01581 µM): 1.2
relative viability (NCI-H1650; first compound 0.05 µM): 1.15
relative viability (NCI-H1650; first compound 0.1581 µM): 1.28
relative viability (NCI-H1650; first compound 0.5 µM): 1.53

— the supplement of paper PMC10307832
